The source made the active and inactive calls. No cut-off for these calls is given here.
Tests used:
K562 [1] = assay: Antiproliferative activity against human K562 cells after 48 hrs by CCK8 assay; assay type: functional, cell-based; settings: K562, 48 h
COLO 320 [2] = assay: Antiproliferative activity against human COLO320 cells after 48 hrs by CCK8 assay; assay type: functional, cell-based; settings: COLO 320, 48 h
MDA-MB-231 [3] = assay: Synergistic antiproliferative activity against human MDA-MB-231 cells at compound to DMXAA mol ratio of 1:1 after 48 hrs by CCK8 assay; assay type: functional, cell-based; settings: MDA-MB-231, 48 h
MCF7 = assay: Synergistic antiproliferative activity against human MCF7 cells at compound to DMXAA mol ratio of 1:1 after 48 hrs by CCK8 assay; assay type: functional, cell-based; settings: MCF7, 48 h
HepG2 = assay: Synergistic antiproliferative activity against human HepG2 cells at compound to DMXAA mol ratio of 1:1 after 48 hrs by CCK8 assay; assay type: functional, cell-based; settings: HepG2, 48 h
K562 [4] = assay: Synergistic antiproliferative activity against human K562 cells at compound to DMXAA mol ratio of 1:1 after 48 hrs by CCK8 assay; assay type: functional, cell-based; settings: K562, 48 h
COLO 320 [5] = assay: Synergistic antiproliferative activity against human COLO320 cells at compound to DMXAA mol ratio of 1:1 after 48 hrs by CCK8 assay; assay type: functional, cell-based; settings: COLO 320, 48 h
L02 = assay: Cytotoxicity against human HL-7702 cells after 48 hrs by CCK8 assay; assay type: cell-based; settings: L02, 48 h
MDA-MB-231 [6] = assay: Induction of apoptosis in human MDA-MB-231 cells assessed as necrotic cells at 0.2 uM after 48 hrs by Annexin-V/FITC/PI staining based flow cytometry (reference value: 1.55 %); assay type: functional
MDA-MB-231 [7] = assay: Induction of apoptosis in human MDA-MB-231 cells assessed as early apoptotic cells at 0.8 uM after 48 hrs by Annexin-V/FITC/PI staining based flow cytometry (reference value: […] %); assay type: functional
MDA-MB-231 [8] = assay: Induction of apoptosis in human MDA-MB-231 cells assessed as late apoptotic cells at 0.8 uM after 48 hrs by Annexin-V/FITC/PI staining based flow cytometry (reference value: 1.50 %); assay type: functional
MDA-MB-231 [9] = assay: Induction of apoptosis in human MDA-MB-231 cells assessed as necrotic cells at 0.8 uM after 48 hrs by Annexin-V/FITC/PI staining based flow cytometry (reference value: 1.55 %); assay type: functional
MDA-MB-231 [10] = assay: Synergistic induction of apoptosis in human MDA-MB-231 cells assessed as viable cells at 0.8 uM after 48 hrs in presence of DMXAA by Annexin-V/FITC/PI staining based flow cytometry (reference value: 99.95 %); assay type: functional; settings: MDA-MB-231, 48 h, read-out: Activity
MDA-MB-231 [11] = assay: Synergistic induction of apoptosis in human MDA-MB-231 cells assessed as late apoptotic cells at 0.8 uM after 48 hrs in presence of DMXAA by Annexin-V/FITC/PI staining based flow cytometry (reference value: 0.00 %); assay type: functional
MDA-MB-231 [12] = assay: Synergistic induction of apoptosis in human MDA-MB-231 cells assessed as late apoptotic cells at 0.4 uM after 48 hrs in presence of DMXAA by Annexin-V/FITC/PI staining based flow cytometry (reference value: 0.00 %); assay type: functional
MDA-MB-231 [13] = assay: Synergistic induction of apoptosis in human MDA-MB-231 cells assessed as necrotic cells at 0.4 uM after 48 hrs in presence of DMXAA by Annexin-V/FITC/PI staining based flow cytometry (reference value: 0.00 %); assay type: functional
MDA-MB-231 [14] = assay: Synergistic induction of apoptosis in human MDA-MB-231 cells assessed as decrease in caspase-9 level at 0.1 to 0.5 uM after 48 hrs in presence of DMXAA by Western blot analysis; assay type: functional, cell-based
MDA-MB-231 [15] = assay: Synergistic cell cycle arrest in human MDA-MB-231 cells assessed as accumulation at S phase 0.2 to 0.8 uM after 48 hrs in presence of DMXAA by propidium iodide staining based flow cytometric method relative to control; assay type: functional
MDA-MB-231 [16] = assay: Synergistic antiproliferative activity against human MDA-MB-231 cells at compound to DMXAA mol ratio of 1:1 after 48 hrs by CCK8 assay relative to compound alone; assay type: functional
MDA-MB-231 [17] = assay: Induction of apoptosis in human MDA-MB-231 cells after 48 hrs by Annexin-V/FITC/PI staining based flow cytometry; assay type: functional, cell-based
MDA-MB-231 [18] = assay: Induction of apoptosis in human MDA-MB-231 cells after 48 hrs in presence of DMXAA by Annexin-V/FITC/PI staining based flow cytometry; assay type: functional, cell-based

- IC50 (K562 [1]): 13.4 µM
- IC50 (COLO 320 [2]): 10.5 µM
- IC50 (MDA-MB-231 [3]): 0.042 µM
- IC50 (MCF7): 2.41 µM
- IC50 (HepG2): 7.21 µM
- IC50 (K562 [4]): 10.2 µM
- IC50 (COLO 320 [5]): 5.12 µM
Compound: O=c1c2cc(Br)ccc2oc2cc(O)cc(O)c12
- IC50 (L02): 565 µM
- Activity (MDA-MB-231 [6]): 14.44%
- Activity (MDA-MB-231 [7]): 2.21%
- Activity (MDA-MB-231 [8]): 13.71%
- Activity (MDA-MB-231 [9]): 45.02%
- viability at 0.8 µM (MDA-MB-231 [10]): 41.1%
- Activity (MDA-MB-231 [11]): 34.65%
- Activity (MDA-MB-231 [12]): 26.7%
- Activity (MDA-MB-231 [13]): 22.27%
- Activity (MDA-MB-231 [14]): Active
- Activity (MDA-MB-231 [15]): 26.5%
- fold change (FC) (MDA-MB-231 [16]): 10
- Activity (MDA-MB-231 [17]): Dose-dependent effect
- Activity (MDA-MB-231 [18]): Dose-dependent effect
